Results: ChEMBL document CHEMBL1201862, “PubChem BioAssay data set” (2004)
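Following 48 hours of exposure in 96-well plates, responses at five concentrations were used to interpolate endpoints linearly. At the GI50, growth is halved.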 The source made the active and inactive calls. No stated cut-off is given here; in the data, active = GI50 up to about 1.1 µM and inactive = higher.

How the values were obtained:
Test in all cases: NCI tumour cell line growth inhibition, 48 h
DU-145 = test system: DU-145
HCT-116 = test system: HCT-116
HL-60 = test system: HL-60
HOP-62 = test system: HOP-62
HOP-92 = test system: HOP-92
LOX IMVI = test system: LOX IMVI
MDA-MB-231 = test system: MDA-MB-231
NCI-H460 = test system: NCI-H460
OVCAR-4 = test system: OVCAR-4
RPMI-8226 = test system: RPMI-8226
RXF 393 = test system: RXF 393
SF-268 = test system: SF-268
SK-MEL-28 = test system: SK-MEL-28
SK-MEL-2 = test system: SK-MEL-2
SN12C = test system: SN12C
SNB-75 = test system: SNB-75
T47D = test system: T47D
UO-31 = test system: UO-31
NCI-H522 = test system: NCI-H522
SR = test system: SR

Row | SMILES | GI50 (DU-145) | GI50 (HCT-116) | GI50 (HL-60) | GI50 (HOP-62) | GI50 (HOP-92) | GI50 (LOX IMVI) | GI50 (MDA-MB-231) | GI50 (NCI-H460) | GI50 (OVCAR-4) | GI50 (RPMI-8226) | GI50 (RXF 393) | GI50 (SF-268) | GI50 (SK-MEL-28) | GI50 (SK-MEL-2) | GI50 (SN12C) | GI50 (SNB-75) | GI50 (T47D) | GI50 (UO-31) | GI50 (NCI-H522) | GI50 (SR)
1 | Oc1ccc2c(c1)OCC1c3ccccc3OC21 (stereo not drawn) | > 100 µM (inactive) | 91.2 µM (inactive) | 28.8 µM (inactive) | > 100 µM (inactive) | > 100 µM (inactive) | 32.3 µM (inactive) | 78 µM (inactive) | 41.6 µM (inactive) | 60.8 µM (inactive) | 45.7 µM (inactive) | 94.2 µM (inactive) | 25.4 µM (inactive) | > 100 µM (inactive) | 60.5 µM (inactive) | 51.6 µM (inactive) | 45.2 µM (inactive) | > 100 µM (inactive) | 52.8 µM (inactive) |  | 
2 | COc1cc(C(=O)OCCn2[nH]c(-c3ccc(Cl)cc3)nc2=S)cc(OC)c1OC | 23.6 µM (inactive) | > 100 µM (inactive) | 38.9 µM (inactive) | > 100 µM (inactive) | 27.5 µM (inactive) | 72.4 µM (inactive) | > 100 µM (inactive) | > 100 µM (inactive) | 95.5 µM (inactive) |  | 1.33 µM (inactive) | 34.3 µM (inactive) | 42.7 µM (inactive) | > 100 µM (inactive) | 91.8 µM (inactive) |  |  | 1.3 µM (inactive) | 27.7 µM (inactive) | 37.8 µM (inactive)
3 | O=C(NCc1cccc2ccccc12)N/N=C\c1ccc(Cl)cc1 | > 100 µM (inactive) | > 100 µM (inactive) | > 100 µM (inactive) | > 100 µM (inactive) | 74.8 µM (inactive) | > 100 µM (inactive) |  | 67 µM (inactive) | > 100 µM (inactive) | 77.1 µM (inactive) | > 100 µM (inactive) | 93.8 µM (inactive) | > 100 µM (inactive) | > 100 µM (inactive) | > 100 µM (inactive) | 62.8 µM (inactive) | > 100 µM (inactive) | > 100 µM (inactive) | 36.6 µM (inactive) | > 100 µM (inactive)
4 | CCCCCCCCCC1CC(=O)OC2=C1C(=O)CCC2 (stereo not drawn) |  | > 100 µM (inactive) | > 100 µM (inactive) | > 100 µM (inactive) | > 100 µM (inactive) | > 100 µM (inactive) |  | > 100 µM (inactive) | > 100 µM (inactive) | > 100 µM (inactive) | > 100 µM (inactive) | > 100 µM (inactive) | > 100 µM (inactive) | > 100 µM (inactive) | > 100 µM (inactive) | > 100 µM (inactive) |  | > 100 µM (inactive) | > 100 µM (inactive) | > 100 µM (inactive)
5 | CC(=O)O[C@H]1C(=O)[C@@]2(C)[C@H]([C@H](OC(=O)c3ccccc3)[C@]3(O)C[C@H](OC(=O)[C@H](O)[C@@H](NC(=O)C(C)(C)C)c4ccccc4)C(C)=C1C3(C)C)[C@]1(OC(C)=O)CO[C@@H]1C[C@@H]2O | 0.106 µM (active) | 0.0322 µM (active) | 0.018 µM (active) | 0.215 µM (active) | 0.535 µM (active) | 0.0542 µM (active) | 5.93 µM (inactive) | 0.0955 µM (active) | > 10 µM (inactive) | 0.0305 µM (active) | 0.188 µM (active) | 0.168 µM (active) | 0.105 µM (active) | 0.0736 µM (active) | 0.0807 µM (active) | 0.0555 µM (active) |  | 0.395 µM (active) | 0.0306 µM (active) | 0.0405 µM (active)
6 | COC(=O)C(C(=O)C(=O)Nc1ccc([N+](=O)[O-])cc1)c1nc2cc(C)c(C)cc2nc1O (stereo not drawn) |  | > 100 µM (inactive) | > 100 µM (inactive) | > 100 µM (inactive) | > 100 µM (inactive) | > 100 µM (inactive) |  | > 100 µM (inactive) | > 100 µM (inactive) | > 100 µM (inactive) | > 100 µM (inactive) | > 100 µM (inactive) | > 100 µM (inactive) |  | > 100 µM (inactive) | > 100 µM (inactive) |  | > 100 µM (inactive) | > 100 µM (inactive) | > 100 µM (inactive)
7 | CC(C)OP(=O)(OC(C)C)/C(N)=N/Nc1ccc([N+](=O)[O-])cc1 |  | 86.3 µM (inactive) | 58.3 µM (inactive) | > 100 µM (inactive) | 46.7 µM (inactive) | > 100 µM (inactive) |  | 41.7 µM (inactive) | > 100 µM (inactive) | > 100 µM (inactive) |  | > 100 µM (inactive) | > 100 µM (inactive) | > 100 µM (inactive) | > 100 µM (inactive) | 81.7 µM (inactive) |  | 61.8 µM (inactive) | 68.7 µM (inactive) | > 100 µM (inactive)
8 | CCCc1cc2c(cc1O)CC[C@@H]1[C@@H]2CC[C@]2(C)[C@@H](O)CC[C@@H]12 |  |  | 12.6 µM (inactive) |  | 19.1 µM (inactive) | 10.5 µM (inactive) | 17.3 µM (inactive) | 10.7 µM (inactive) | 17.7 µM (inactive) |  | 10.2 µM (inactive) | 13.2 µM (inactive) | 13.1 µM (inactive) | 15.1 µM (inactive) | 11.7 µM (inactive) | 13.5 µM (inactive) | 10.6 µM (inactive) | 12 µM (inactive) | 8.32 µM (inactive) | 3.61 µM (inactive)
